From US20250295609A1, “COMPOUND HAVING ANTI-ANDROGEN RECEPTOR ACTIVITY, AND USE THEREOF” (NANJING MINOVA PHARMACEUTICAL CO., LTD., priority 2022, published 2025)

Tested on: alopecia mouse model
Assay: Hair growth promotion test in mice with alopecia (testosterone propionate model)
Format: in vivo, C57BL/6 mice
Procedure: The compounds of the present disclosure were tested for their hair growth-promoting effects on an alopecia mouse model.
C57BL/6 mice (purchased from SPF (Beijing) Biotechnology Co., Ltd., production license No.: SCXK (Beijing) 2019-0010), test compounds (prepared by the method of the present disclosure), rosin (Shanghai YuanYe Bio-Technology Co., Ltd., lot No. Y18M10C83144), liquid paraffin (Shanghai YuanYe Bio-Technology Co., Ltd., lot No.: Z22S11Y125555), chloral hydrate (Sinopharm Chemical Reagent Co., Ltd., lot No.: 20190823, a 2% chloral hydrate solution was prepared by using a 0.9% sodium chloride solution before use), testosterone propionate (Aladdin Reagent (Shanghai) Co., Ltd., lot No.: T101368, a 0.5% testosterone propionate solution was prepared by using an a soybean oil for injection before use), soybean oil for injection (Liaoning Shinsun Pharmaceutical Co., Ltd., lot No.: NMPA Approval No. H21024303), paraformaldehyde (Xilong Scientific Co., Ltd., lot No.: 1705022), a 0.9% sodium chloride solution (Jiangsu Huai'an Shuanghe Pharmaceutical Co., Ltd., lot No.: 210322-3C), an electronic balance (Beijing Sartorius Scientific Instruments Co., Ltd., model: BS224 S; GZX-9140MBE), and a digital display electric heating constant temperature air blast drying oven (Shanghai Boxun Medical Biological Instrument Corp.).
8-week-old male C57BL/6 mice were selected and injected with 2% chloral hydrate (400 mg/kg) for anesthesia. Equal amounts of rosin and paraffin were weighed out, heated, and mixed well. The mixture was applied on the front back of the mice in an area of about 2 cm×2.5 cm. After the mixture was cooled to be hard, the solidified hair was torn off by tweezers gently.
Qualified C57BL/6 mice (3 mice per group) were randomly assigned to a blank group, a model group, a positive control drug group (7.5% clascoterone group), and test groups (including 0.3% compound 8 group and 0.3% compound 7 group). Mice in the blank group were coated with 0.1 mL of normal saline in the depilated area every morning (1 time a day for 17 consecutive days); mice in the model group were coated with 0.1 mL of 0.5% testosterone propionate solution in the depilated area every morning (1 time a day, starting on the first day, for 17 consecutive days), and with 0.5 mL of the control solvent in the depilated area every afternoon (1 time a day, starting on the second day, for 16 consecutive days); mice in the positive control drug group were coated with 0.1 mL of 0.5% testosterone propionate solution in the depilated area every morning (1 time a day, starting on the first day, for 17 consecutive days), and with 0.5 mL of 7.5% clascoterone solution in the depilated area every afternoon (1 time a day, starting on the second day, for 16 consecutive days); and mice in the test groups were coated with 0.1 mL of 0.5% testosterone propionate solution in the depilated area every morning (1 time a day, starting on the first day, for 17 consecutive days), and with 0.5 mL of 0.3% test compound solution in the depilated area every afternoon (1 time a day, starting on the second day, for 16 consecutive days). The formula of the test compound solution was 0.3% test compound, 40% DMSO, 30% ethanol, and the balance of water; the formula of the control solvent was 40% DMSO, 30% ethanol, and the balance of water; the formula of the positive control drug group was 7.5% clascoterone, 40% DMSO, 30% ethanol, and the balance of water. The hair regrowth in the depilated area of the mice in each group was observed and photographed 16 days after the start of topical administration of the test compound solution.
On day 18 of the test, 5 new hairs were pulled out from the back depilated area of each mouse in each group, the lengths of the hairs were measured using a vernier caliper, and the lengths of the hairs of the mice in each group were counted. The skin of the depilated area of the mice in each group was cut out, and hematoxylin-eosin staining (HE staining) was performed. […]

## CCC(=O)O[C@]1(C(=O)CO)CC[C@H]2[C@@H]3CCC4=CC(=O)CC[C@]4(C)[C@H]3CC[C@@]21C [clascoterone, reference compound]
Alopecia mouse model, FIG. 3
  hair growth and number of hair follicles compared to the model group (in words): significantly grown hairs and the number of hair follicles was significantly increased
Day 18, per field (×100), HE staining, topical once daily for 16 days
  Number of hair follicles (X ± SD): 53.533 ± 24.929
Day 18, topical once daily for 16 days, testosterone propionate alopecia mice
  Hair length (X ± SD): 5.649 ± 0.059 mm
